In paper PMC10233829 (ACS Omega, 2023):
≈ marks a conversion by molar mass, not a printed value.

Key:
[1] = tested on: S. aureus ATCC 29213; test: MIC, twofold microdilution, standard strain; assay type: cell-based; conditions: Staphylococcus aureus, ATCC29213, 18 h
[2] = tested on: E. coli 600; test: MIC, twofold microdilution, clinical strain; assay type: cell-based, Escherichia coli; conditions: Escherichia coli, 600, 18 h
[3] = MTT assay, cytotoxic activity; assay type: cell-based; conditions: human, HaCaT cells (immortal keratinocytes); MTT, 72 h, normal cell line; read-out: IC50 HaCaT
Procedure, shortened: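 MTT assay on cells grown at 37 °C/5% CO2. Viability is expressed as relative MTT reduction: test absorbance divided by untreated-control absorbance, ×100%.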

[4] = tested on: E. coli 951; test: MIC, twofold microdilution, clinical strain; assay type: cell-based; conditions: Escherichia coli, 18 h
[5] = tested on: S. aureus ATCC 6538; test: MIC, twofold microdilution, standard strain; assay type: cell-based, Staphylococcus aureus; conditions: for MIC: Staphylococcus aureus, ATCC6538, standard strain, 18 h; for MIC used in biofilm eradication assay, S. aureus 6538: Table S1, MIC
[6] = tested on: S. aureus NCTC 4163; test: MIC, twofold microdilution, standard strain; assay type: cell-based; conditions: Staphylococcus aureus, NCTC4163, 18 h
[7] = tested on: clinical bacterial strains; test: MIC, clinical isolates as groups of strains; assay type: cell-based; conditions: for share of CP inhibitory activity: S. aureus 180 and 5595
[8] = tested on: S. epidermidis ATCC 35984; test: MIC, twofold microdilution, standard strain; assay type: cell-based; conditions: Staphylococcus epidermidis, ATCC35984, 18 h
[9] = tested on: P. aeruginosa 37; test: MIC, twofold microdilution, clinical strain; assay type: cell-based; conditions: Pseudomonas aeruginosa, 18 h
[10] = tested on: PC3 cells; test: MTT assay, cytotoxic activity; assay type: cell-based, human; conditions: Homo sapiens, PC-3, 72 h, MTT, 72 h
Procedure, shortened: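 PC3 cells were grown at 37 °C/5% CO2 and exposed to test compounds. Viability came from MTT reduction, as test absorbance over untreated-control absorbance × 100%.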

[11] = tested on: S. pasteuri KR 4358; test: MIC, twofold microdilution, clinical strain; assay type: cell-based; conditions: Staphylococcus pasteuri, KR4358, 18 h
[12] = tested on: S. epidermidis 5253; test: MIC, twofold microdilution, clinical strain; assay type: cell-based, Staphylococcus epidermidis; conditions: Staphylococcus epidermidis, 5253, 18 h
[13] = tested on: E. cloacae 8; test: MIC, twofold microdilution, clinical strain; assay type: cell-based, Escherichia cloacae; conditions: Enterobacter cloacae, 8; clinical strain, 18 h
[14] = tested on: S. aureus 5595; test: MIC, twofold microdilution, clinical strain; assay type: cell-based; conditions: Staphylococcus aureus, 18 h
[15] = tested on: K. pneumoniae 28; test: MIC, twofold microdilution, clinical strain; assay type: cell-based; conditions: Klebsiella pneumoniae, 18 h
[16] = tested on: S. aureus ATCC 25923; test: MIC, twofold microdilution, standard strain; assay type: cell-based; conditions: Staphylococcus aureus, ATCC25923, 18 h
[17] = tested on: E. coli 520; test: MIC, twofold microdilution, clinical strain; assay type: cell-based; conditions: Escherichia coli, 18 h
[18] = tested on: S. epidermidis ATCC 12228; test: MIC, twofold microdilution, standard strain; assay type: cell-based; conditions: Staphylococcus epidermidis, ATCC12228, 18 h
[19] = tested on: P. aeruginosa ATCC 15442; test: MIC, twofold microdilution, standard strain; assay type: cell-based, Pseudomonas aeruginosa; conditions: for MIC: Pseudomonas aeruginosa, ATCC15442, standard strain, 18 h; for MIC used in biofilm eradication assay, P. aeruginosa 15442: Table S1, MIC
[20] = tested on: S. aureus 180; test: MIC, twofold microdilution, clinical strain; assay type: cell-based; conditions: Staphylococcus aureus, 18 h
[21] = tested on: E. coli ATCC 25922; test: MIC, twofold microdilution, standard strain; assay type: cell-based, Escherichia coli; conditions: for MIC: Escherichia coli, ATCC25922, standard strain, 18 h; for MIC used in biofilm eradication assay, E. coli ATCC 25922: Table S1, MIC
[22] = tested on: P. aeruginosa ATCC 15442; test: Bacterial growth curve assay (OD600, 18 h); assay type: cell-based, Pseudomonas aeruginosa; conditions: for dose that fully inhibited bacterial growth: P. aeruginosa ATCC 15442, 18 h; for exponential phase shifted to: P. aeruginosa
[23] = tested on: S. aureus T5595; test: MIC, twofold microdilution, clinical strain; assay type: cell-based, Staphylococcus aureus; conditions: Staphylococcus aureus, T5595, 18 h
[24] = tested on: K. pneumoniae 510; test: MIC, twofold microdilution, clinical strain; assay type: cell-based, Klebsiella pneumoniae; conditions: for share of the reference (CP) activity: Klebsiella pneumoniae rods; for MIC: Klebsiella pneumoniae, 510, clinical strain, 18 h
[25] = tested on: M. tuberculosis H37Rv; test: Tuberculostatic activity, Microplate Alamar Blue Assay (MIC); assay type: cell-based, Mycobacterium tuberculosis; conditions: Mycobacterium tuberculosis, H37RV; MABA; read-out: MIC M. tuberculosis H37Rv
[26] = tested on: S. epidermidis KR4243/1; test: MIC, twofold microdilution, clinical strain; assay type: cell-based; conditions: Staphylococcus epidermidis, 18 h
[27] = tested on: S. aureus T5591; test: MIC, twofold microdilution, clinical strain; assay type: cell-based, Staphylococcus aureus; conditions: Staphylococcus aureus, T5591, 18 h
[28] = tested on: M. tuberculosis Spec. 192; test: Tuberculostatic activity, Microplate Alamar Blue Assay (MIC); assay type: cell-based; conditions: Mycobacterium tuberculosis, MABA, read-out: MIC M. tuberculosis Spec. 192 (sensitive to tuberculostatics)
[29] = tested on: P. aeruginosa 659; test: MIC, twofold microdilution, clinical strain; assay type: cell-based; conditions: Pseudomonas aeruginosa, 18 h
[30] = tested on: S. epidermidis 4341; test: MIC, twofold microdilution, clinical strain; assay type: cell-based; conditions: Staphylococcus epidermidis, 18 h

O=C(O)c1cn(C2CC2)c2cc(N3CCN(C(=O)CCCCl)CC3)c(F)cc2c1=O [Compound 5, 7-[4-(4-Chlorobutyryl)-piperazin-1-yl]-1-cyclopropyl-6-fluoro-4-oxo-1,4-dihydro-quinoline-3-carboxylic Acid]
MIC [1]: 0.4 µg/mL (≈ 0.918 µM)
MIC [2]: 0.025 µg/mL (≈ 0.0574 µM)
IC50 at 72 h [3]: > 100 µM
MIC [4]: 0.8 µg/mL (≈ 1.84 µM)
MIC [5]: 0.2 µg/mL (≈ 0.459 µM)
MIC used in biofilm eradication assay, S. aureus 6538 [5]: 0.200 µg/mL (≈ 0.459 µM)
MIC [6]: 0.2 µg/mL (≈ 0.459 µM)
share of the reference (CP) activity ([7]; S. aureus T5595 and T5591): 62.5%
MIC [8]: 0.2 µg/mL (≈ 0.459 µM)
MIC [9]: 0.8 µg/mL (≈ 1.84 µM)
IC50 [10]: 97.2 ± 11 µM
MIC [11]: 0.2 µg/mL (≈ 0.459 µM)
MIC [12]: > 25.6 µg/mL
MIC [13]: 0.05 µg/mL (≈ 0.115 µM)
MIC [14]: 0.4 µg/mL (≈ 0.918 µM)
MIC [15]: > 25.6 µg/mL
MIC [16]: 0.8 µg/mL (≈ 1.84 µM)
MIC [17]: 0.025 µg/mL (≈ 0.0574 µM)
MIC [18]: 0.4 µg/mL (≈ 0.918 µM)
MIC [19]: 0.2 µg/mL (≈ 0.459 µM)
MIC used in biofilm eradication assay, P. aeruginosa 15442 [19]: 0.200 µg/mL (≈ 0.459 µM)
MIC [20]: 0.4 µg/mL (≈ 0.918 µM)
MIC [21]: 0.025 µg/mL (≈ 0.0574 µM)
MIC used in biofilm eradication assay, E. coli ATCC 25922 [21]: 0.025 µg/mL (≈ 0.0574 µM)
dose that fully inhibited bacterial growth [22]: ≥ 0.2 µg/mL
exponential phase shifted to ([22]; 0.03 μg/mL): 7 to 12 h
exponential phase shifted to ([22]; 0.05 μg/mL): 8 to 15 h
MIC [23]: 0.4 µg/mL (≈ 0.918 µM)
share of the reference (CP) activity [24]: 62.5%
MIC [24]: 6.4 µg/mL (≈ 14.7 µM)
MIC [25]: 0.5 µg/mL (≈ 1.15 µM)
MIC [26]: 0.2 µg/mL (≈ 0.459 µM)
MIC [27]: 0.4 µg/mL (≈ 0.918 µM)
MIC [28]: 0.5 µg/mL (≈ 1.15 µM)
MIC [29]: 0.8 µg/mL (≈ 1.84 µM)
MIC [30]: 12.8 µg/mL (≈ 29.4 µM)

O=C(O)c1cn(C2CC2)c2cc(N3CCN(C(=O)CCCBr)CC3)c(F)cc2c1=O [Compound 10, 7-[4-(4-Bromobutyryl)-piperazin-1-yl]-1-cyclopropyl-6-fluoro-4-oxo-1,4-dihydro-quinoline-3-carboxylic Acid]
MIC [1]: 0.4 µg/mL (≈ 0.833 µM)
MIC [2]: 0.05 µg/mL (≈ 0.104 µM)
IC50 at 72 h [3]: 89.1 ± 2.1 µM
MIC [4]: 0.4 µg/mL (≈ 0.833 µM)
MIC [5]: 0.2 µg/mL (≈ 0.416 µM)
MIC used in biofilm eradication assay, S. aureus 6538 [5]: 0.200 µg/mL (≈ 0.416 µM)
MIC [6]: 0.2 µg/mL (≈ 0.416 µM)
share of CP inhibitory activity [7]: 62.5%
MIC [8]: 0.1 µg/mL (≈ 0.208 µM)
MIC [9]: 0.8 µg/mL (≈ 1.67 µM)
IC50 [10]: 84.1 ± 7.3 µM
MIC [11]: 0.2 µg/mL (≈ 0.416 µM)
MIC [12]: > 25.6 µg/mL
MIC [13]: 0.05 µg/mL (≈ 0.104 µM)
MIC [14]: 0.8 µg/mL (≈ 1.67 µM)
MIC [15]: > 25.6 µg/mL
MIC [16]: 0.4 µg/mL (≈ 0.833 µM)
MIC [17]: 0.1 µg/mL (≈ 0.208 µM)
MIC [18]: 0.2 µg/mL (≈ 0.416 µM)
MIC [19]: 0.1 µg/mL (≈ 0.208 µM)
MIC used in biofilm eradication assay, P. aeruginosa 15442 [19]: 0.100 µg/mL (≈ 0.208 µM)
MIC [20]: 0.8 µg/mL (≈ 1.67 µM)
MIC [21]: 0.025 µg/mL (≈ 0.052 µM)
MIC used in biofilm eradication assay, E. coli ATCC 25922 [21]: 0.025 µg/mL (≈ 0.052 µM)
dose that fully inhibited bacterial growth [22]: ≥ 0.2 µg/mL
MIC [23]: 0.8 µg/mL (≈ 1.67 µM)
share of the reference (CP) activity [24]: 62.5%
MIC [24]: 6.4 µg/mL (≈ 13.3 µM)
MIC [25]: 1 µg/mL (≈ 2.08 µM)
MIC [26]: 0.4 µg/mL (≈ 0.833 µM)
MIC [27]: 0.8 µg/mL (≈ 1.67 µM)
MIC [28]: 0.5 µg/mL (≈ 1.04 µM)
MIC [29]: 0.8 µg/mL (≈ 1.67 µM)
MIC [30]: 25.6 µg/mL (≈ 53.3 µM)

O=C(O)c1cn(C2CC2)c2cc(N3CCN(C(=O)CCCCBr)CC3)c(F)cc2c1=O [Compound 11, 7-[4-(5-Bromopentanoyl)-piperazin-1-yl]-1-cyclopropyl-6-fluoro-4-oxo-1,4-dihydro-quinoline-3-carboxylic Acid]
MIC [1]: 0.2 µg/mL (≈ 0.405 µM)
MIC [2]: 0.05 µg/mL (≈ 0.101 µM)
IC50 at 72 h [3]: 80.1 ± 8.1 µM
MIC [4]: 0.4 µg/mL (≈ 0.809 µM)
MIC [5]: 0.1 µg/mL (≈ 0.202 µM)
MIC used in biofilm eradication assay, S. aureus 6538 [5]: 0.100 µg/mL (≈ 0.202 µM)
MIC [6]: 0.1 µg/mL (≈ 0.202 µM)
share of CP inhibitory activity [7]: 62.5%
MIC [8]: 0.1 µg/mL (≈ 0.202 µM)
MIC [9]: 0.8 µg/mL (≈ 1.62 µM)
IC50 [10]: 81.7 ± 8.9 µM
MIC [11]: 0.2 µg/mL (≈ 0.405 µM)
MIC [12]: > 25.6 µg/mL
MIC [13]: 0.05 µg/mL (≈ 0.101 µM)
MIC [14]: 0.8 µg/mL (≈ 1.62 µM)
MIC [15]: > 25.6 µg/mL
MIC [16]: 0.4 µg/mL (≈ 0.809 µM)
MIC [17]: 0.1 µg/mL (≈ 0.202 µM)
MIC [18]: 0.1 µg/mL (≈ 0.202 µM)
MIC [19]: 0.1 µg/mL (≈ 0.202 µM)
MIC used in biofilm eradication assay, P. aeruginosa 15442 [19]: 0.100 µg/mL (≈ 0.202 µM)
MIC [20]: 0.8 µg/mL (≈ 1.62 µM)
MIC [21]: 0.025 µg/mL (≈ 0.0506 µM)
MIC used in biofilm eradication assay, E. coli ATCC 25922 [21]: 0.025 µg/mL (≈ 0.0506 µM)
dose that fully inhibited bacterial growth [22]: ≥ 0.2 µg/mL
MIC [23]: 0.8 µg/mL (≈ 1.62 µM)
share of the reference (CP) activity [24]: 62.5%
MIC [24]: 6.4 µg/mL (≈ 12.9 µM)
MIC [25]: 0.5 µg/mL (≈ 1.01 µM)
MIC [26]: 0.4 µg/mL (≈ 0.809 µM)
MIC [27]: 0.8 µg/mL (≈ 1.62 µM)
MIC [28]: 0.5 µg/mL (≈ 1.01 µM)
MIC [29]: 0.8 µg/mL (≈ 1.62 µM)
MIC [30]: 25.6 µg/mL (≈ 51.8 µM)
